{"source": "patent US9585871B2", "about": "“Method for treating and curing leishmaniosis using fexinidazole” (Merial Limited, priority 2013, dated 2017)", "test_system": "L. infantum", "test": "Clinical study in dogs infected with L. infantum: Overall Biological Score", "type": "in vivo", "parameters": "key: additive score of severity of hematology/chemistry changes", "conditions": "samples collected on D16 (printed in Day 28 column), Group 1 Block 8 dog removed for toxicity; Glucantime 100 mg/kg dNMA SC once daily", "data": [{"substance": "meglumine antimoniate [Glucantime]", "values": [{"measurement": "Overall Biological Score", "value": "5^2"}]}]}
